We go through 2 molecules from BindingDB's records for patent US10780095 (THE REGENTS OF THE UNIVERSITY OF CALIFORNIA, 2020).

In this test the target is Prokineticin receptor 1 (Human, UniProt Q8TCW9). Kind of test: Aequorin-Based Luminescent Assay. The procedure: An aequorin-based luminescent assay for calcium mobilization was used to measure mobilization of intracellular Ca2+ (Bullock et al., Mol Pharmacol 65, 582-588, 2004). Chinese hamster ovary (CHO) cells stably expressing photoprotein aequorin and recombinant PKR1 or PKR2 were tested by this method. Briefly, the cells were charged in Opti-MEM (Invitrogen) containing 8 μM of coelenterazine cp at 37° C. for 2 hours. Cells were detached by brief trypsinization and maintained in Hank's Balanced Salt Solution (HBSS) plus 10 mM HEPES (pH7.5) and 0.1% BSA at about 5×10^5 cells/ml. Luminescence measurements were made using a Berthold luminometer.All compounds were diluted in HBSS plus 10 mM HEPES (pH7.5) and 0.1% BSA. To test the agonist activity, 100 μl of cells were injected into the tubes with 20 μl of compounds. For antagonist assays, 80 μl cells were incubated in the tubes with 20 μl different concentrations of antagonists at room temperature for 20 minutes, and then 100 μl of recombinant PK2 were injected. The IC50 obtained from the assays were then converted to Ki values using the formula: IC50/(1+[PK2]/EC50PK2).
Sequence of Prokineticin receptor 1 (Q8TCW9 whole entry): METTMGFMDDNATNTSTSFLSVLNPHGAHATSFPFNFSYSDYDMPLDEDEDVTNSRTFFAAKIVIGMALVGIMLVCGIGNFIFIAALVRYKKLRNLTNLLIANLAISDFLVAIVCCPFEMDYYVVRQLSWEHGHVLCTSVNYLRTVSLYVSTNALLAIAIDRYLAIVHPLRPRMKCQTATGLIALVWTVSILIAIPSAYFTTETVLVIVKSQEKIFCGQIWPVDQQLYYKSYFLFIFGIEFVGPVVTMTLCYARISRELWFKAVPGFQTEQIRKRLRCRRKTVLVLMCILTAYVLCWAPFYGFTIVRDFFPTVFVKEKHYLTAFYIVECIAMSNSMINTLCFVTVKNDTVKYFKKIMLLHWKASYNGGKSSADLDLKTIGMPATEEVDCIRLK

Usually Ki stands for a measure of affinity in units of concentration, obtained from inhibition or displacement. A higher Ki goes with lower affinity. `COc1cc(F)cc(CN2CCC(C(=O)N(Cc3cc(Cl)c4c(c3)OCCCO4)CC(C)C)C2)c1` (configuration not stated) [US10780095, Structure TABLE 1.16]: the inhibition constant Ki was determined as 373 nM. This lies in the sub-micromolar range.
Then `COc1cc(F)cc(CN2CCC(C(=O)N(Cc3cc(Cl)c4c(c3)OCCCO4)CC(C)C)C2)c1` (configuration not stated) [US10780095, Structure TABLE 1.18], with 41.5 nM.
